According to patent US20220290237A1, “METHOD FOR PREDICTING THE RESPONSE OF ANTIPSYCHOTIC DRUGS” (INSERM (INSTITUT NATIONAL DE LA SANTÉ ET DE LA RECHERCHE …, priority 2019, published 2022):

Test system: total RNA from PBMCs
Assay: RNA-seq gene expression before and after 4 weeks of amisulpride treatment
Type: in vivo, human
Details: 4 weeks amisulpride
Source text: The cohort analysed in this study was obtained from the OPTiMiSE clinical trial (http://www.optimisetrial.eu) (29). After providing written informed consent, 491 patients with a first episode psychosis were included and 453 started medication. All patients were diagnosed with schizophrenia, schizophreniform disorder or schizoaffective disorder according to the Diagnostic and Statistical Manual of Mental Disorders, Fourth Edition (DSM-IV) and confirmed on the basis of the Mini International Neuropsychiatric Interview Plus (M.I.N.I. Plus) (30) (table 4). At baseline, patients were medication-naïve or minimally-treated (any antipsychotic medication used for […] 2 weeks in the previous year or for a total of 6 weeks in their lifetime) and were ill for no longer than 2 years. Only subjects involved in the single-treatment arm (phase 1) of the trial were considered for this study (29). All patients were treated for 4 weeks with amisulpride (200-800 mg/day orally). At the end of the 4-week treatment, the blood concentration of antipsychotic used has been determined. This measurement provided a reliable indication of the treatment compliance of individual patients.
A DNase digestion procedure was added after extraction. Total RNA was purified using the RNA Clean & Concentrator™-5 kit following the manufacturer's instructions (Zymo Research Corp., Irvine, USA). RNA quantification was performed on a NanoDrop™ 8000 spectrophotometer, in duplicate. The quality and integrity of the RNA samples were assessed using an Agilent Bioanalyzer 2100 and the RNA6000 Nano Labchip kit (Agilent Technologies). Only samples with an RNA integrity number (RIN) higher than 7 were selected. Three hundred and seventy-six RNA samples fulfilled quality control criteria for RNA-seq analyses, corresponding to two RNA samples (one at inclusion and one after 4 weeks of treatment) for 188 subjects. Forty-eight additional RNAs were available for replication studies, in 24 independent subjects.
All libraries were prepared using the Illumina TruSeq Stranded Total RNA with Ribo-Zero Globin kit (Illumina Inc., San Diego, Calif., U.S.A.), which removes ribosomal RNA and globin mRNA. Libraries were prepared using one microgram of total RNA as initial input and following the standard protocols. After library quality control, 2×100 bp paired-end (PE) sequencing was performed on a HiSeq4000 system (Illumina), pooling a maximum of 6 samples on each lane, in order to reach 40 to 50 million of PE-reads for each sample. The Illumina pipeline was used to generate raw RNA sequencing data (fastq files) for each sample. Sequence quality controls were performed, using FastQC and in-house bioinformatics pipelines, from a sampling of 2×10 million reads in order to assess the levels of read duplicates, adapters, remaining rRNA and the GC content. Reads were trimmed for adapters and low-quality bases (Phred quality score <30) using Trimmomatic software (v.0.32). Reads were then mapped to the Genome Reference Consortium human genome assembly 37 (GRCh37) reference genome (hg19) using Tophat software (v.2.0.13). Read mapping quality was assessed using RNA-SeQC software. Then, gene-level quantification in read counts was performed by HTSeq software (v.0.6.1), using gene annotation from Ensembl v.86. All downstream analyses were conducted using the statistical software R (v.3.2.4) and Bioconductor R packages. Genes with counts-per million (cpm) below 1 in more than two third of the samples were considered unexpressed and removed from the analysis using edgeR package (v.3.12.1). Raw gene counts matrix has been normalized to account for differences in sequencing depth and RNA composition using the “median ratio” method implemented in the DESeq2 package (v.1.16.1). To avoid batch effects as confounding factors, all subjects had their 2 time-points in a same batch. […]

With `CCN1CCCC1CNC(=O)c1cc(S(=O)(=O)CC)c(N)cc1OC` (centres unmarked) [amisulpride, 4-amino-N-((1-ethyl-2-pyrrolidinyl)methyl)-5-(etgylsulfonyl)-2-methoxybenzamide] the “FC, fold-change at week 4 relative to the expression level at inclusion: AC073172.1” value (good responders (n = 113)) was 0.72, the “FC, fold-change at week 4 relative to the expression level at inclusion: AC073172.1” value (poor responders (n = 75)) was 0.97 and the “FC, fold-change at week 4 relative to the expression level at inclusion: AC092171.4” value (good responders (n = 113)) was 0.85. For the same compound, the “FC, fold-change at week 4 relative to the expression level at inclusion: AC092171.4” value (poor responders (n = 75)) was 1.06, the “FC, fold-change at week 4 relative to the expression level at inclusion: AC132872.1” value (good responders (n = 113)) was 0.81 and the “FC, fold-change at week 4 relative to the expression level at inclusion: AC132872.1” value (poor responders (n = 75)) was 1.05. For the same compound, the “FC, fold-change at week 4 relative to the expression level at inclusion: ACSL5” value (good responders (n = 113)) was 1.06, the “FC, fold-change at week 4 relative to the expression level at inclusion: ACSL5” value (poor responders (n = 75)) was 0.99 and the “FC, fold-change at week 4 relative to the expression level at inclusion: AL133351.4” value (good responders (n = 113)) was 0.88. The “FC, fold-change at week 4 relative to the expression level at inclusion: AL133351.4” value (poor responders (n = 75)) was 1.04, the “FC, fold-change at week 4 relative to the expression level at inclusion: AL391832.3” value (good responders (n = 113)) was 0.88 and the “FC, fold-change at week 4 relative to the expression level at inclusion: AL391832.3” value (poor responders (n = 75)) was 1.00. For the same compound, the “FC, fold-change at week 4 relative to the expression level at inclusion: ALG1L13P” value (good responders (n = 113)) was 0.89, the “FC, fold-change at week 4 relative to the expression level at inclusion: ALG1L13P” value (poor responders (n = 75)) was 1.02 and the “FC, fold-change at week 4 relative to the expression level at inclusion: ALPL” value (good responders (n = 113)) was 0.79. For the same compound, the “FC, fold-change at week 4 relative to the expression level at inclusion: ALPL” value (poor responders (n = 75)) was 1.09, the “FC, fold-change at week 4 relative to the expression level at inclusion: AP000640.1” value (good responders (n = 113)) was 0.84 and the “FC, fold-change at week 4 relative to the expression level at inclusion: AP000640.1” value (poor responders (n = 75)) was 1.00. The “FC, fold-change at week 4 relative to the expression level at inclusion: C15orf54” value (good responders (n = 113)) was 1.18, the “FC, fold-change at week 4 relative to the expression level at inclusion: C15orf54” value (poor responders (n = 75)) was 1.07 and the “FC, fold-change at week 4 relative to the expression level at inclusion: CA4” value (good responders (n = 113)) was 0.76. For the same compound, the “FC, fold-change at week 4 relative to the expression level at inclusion: CA4” value (poor responders (n = 75)) was 1.07, the “FC, fold-change at week 4 relative to the expression level at inclusion: CXCR6” value (good responders (n = 113)) was 1.14 and the “FC, fold-change at week 4 relative to the expression level at inclusion: CXCR6” value (poor responders (n = 75)) was 1.03. The “FC, fold-change at week 4 relative to the expression level at inclusion: CYSLTR2” value (good responders (n = 113)) was 1.13, the “FC, fold-change at week 4 relative to the expression level at inclusion: CYSLTR2” value (poor responders (n = 75)) was 1.01 and the “FC, fold-change at week 4 relative to the expression level at inclusion: DGAT2” value (good responders (n = 113)) was 0.87. For the same compound, the “FC, fold-change at week 4 relative to the expression level at inclusion: DGAT2” value (poor responders (n = 75)) was 1.08, the “FC, fold-change at week 4 relative to the expression level at inclusion: DHRS13” value (good responders (n = 113)) was 0.87 and the “FC, fold-change at week 4 relative to the expression level at inclusion: DHRS13” value (poor responders (n = 75)) was 1.04. For the same compound, the “FC, fold-change at week 4 relative to the expression level at inclusion: FAT1” value (good responders (n = 113)) was 1.27, the “FC, fold-change at week 4 relative to the expression level at inclusion: FAT1” value (poor responders (n = 75)) was 1.20 and the “FC, fold-change at week 4 relative to the expression level at inclusion: FBXL13” value (good responders (n = 113)) was 0.85. For the same compound, the “FC, fold-change at week 4 relative to the expression level at inclusion: FBXL13” value (poor responders (n = 75)) was 0.92 and the “FC, fold-change at week 4 relative to the expression level at inclusion: GALNT14” value (GALNT14, good responders (n = 113)) was 0.78.
